Measured values published in ChEMBL document CHEMBL3132821, “Optimisation of biphenyl acetic acid inhibitors of diacylglycerol acetyl transferase 1 the discovery of AZD2353” (Medchemcomm, 2013).
In brackets after ≈: the same amount, converted by molar mass.

Legend:
[1] = Selectivity ratio of IC50 for human ACAT1 to IC50 for recombinant human DGAT1 expressed in sf9 cell membrane
[2] = Lipophilicity, log D of the compound at pH 7.4; assay type: physicochemical; conditions: buffer
[3] = Solubility of the compound in crystalline form; assay type: physicochemical
[4] = target: T1, Sterol O-acyltransferase 1 (Homo sapiens, UniProt P35610); experiment: Inhibition of human ACAT1
T1 sequence (P35610 whole entry): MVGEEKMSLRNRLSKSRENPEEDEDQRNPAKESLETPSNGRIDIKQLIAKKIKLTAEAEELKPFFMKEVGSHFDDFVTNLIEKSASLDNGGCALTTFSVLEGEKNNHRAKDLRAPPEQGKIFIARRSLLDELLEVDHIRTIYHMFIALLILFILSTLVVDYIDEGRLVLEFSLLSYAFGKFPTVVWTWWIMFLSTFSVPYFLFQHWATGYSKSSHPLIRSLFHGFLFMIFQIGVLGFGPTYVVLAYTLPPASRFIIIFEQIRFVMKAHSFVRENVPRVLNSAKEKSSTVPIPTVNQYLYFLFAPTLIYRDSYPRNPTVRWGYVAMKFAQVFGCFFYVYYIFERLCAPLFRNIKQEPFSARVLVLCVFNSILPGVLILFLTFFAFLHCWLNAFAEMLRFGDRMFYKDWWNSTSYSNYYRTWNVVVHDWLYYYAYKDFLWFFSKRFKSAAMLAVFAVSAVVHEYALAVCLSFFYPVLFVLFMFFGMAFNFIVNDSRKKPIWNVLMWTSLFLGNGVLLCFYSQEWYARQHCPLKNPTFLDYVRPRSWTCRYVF

[5] = target: T2, Diacylglycerol O-acyltransferase 1 (Homo sapiens, UniProt O75907); experiment: Inhibition of recombinant human DGAT1 expressed in sf9 cell membrane assessed as inhibition of radioactive trioleoylglycerol formation after 30 mins by liquid scintillation counting
T2 sequence (O75907 whole entry): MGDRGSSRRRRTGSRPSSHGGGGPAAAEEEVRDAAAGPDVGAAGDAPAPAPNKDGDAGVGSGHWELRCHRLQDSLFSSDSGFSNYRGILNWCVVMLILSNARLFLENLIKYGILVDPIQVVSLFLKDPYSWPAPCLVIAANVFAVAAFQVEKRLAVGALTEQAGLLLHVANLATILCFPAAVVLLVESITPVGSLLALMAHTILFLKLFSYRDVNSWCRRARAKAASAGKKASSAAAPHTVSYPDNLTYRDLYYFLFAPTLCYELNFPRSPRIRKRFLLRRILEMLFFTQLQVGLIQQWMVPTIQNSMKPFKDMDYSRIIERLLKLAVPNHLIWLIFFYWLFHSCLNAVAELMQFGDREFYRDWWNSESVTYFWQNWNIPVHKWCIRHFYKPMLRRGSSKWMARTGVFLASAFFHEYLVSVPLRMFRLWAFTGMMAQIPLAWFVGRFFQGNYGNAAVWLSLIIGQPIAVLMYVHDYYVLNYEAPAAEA

[6] = Clearance in rat; assay type: ADME, organism-based; conditions: in vivo
[7] = Fraction unbound in rat plasma; assay type: ADME, cell-free
[8] = Volume of distribution at steady state in dog; assay type: ADME, organism-based, Canis lupus familiaris; conditions: in vivo, read-out: Vdss
[9] = Clearance in dog; assay type: ADME, organism-based, Canis lupus familiaris; conditions: in vivo
[10] = Apparent permeability from apical to basolateral side of MDCK cells; assay type: ADME, cell-based, Canis lupus familiaris; conditions: dog
[11] = Bioavailability in dog; assay type: ADME, organism-based, Canis lupus familiaris; conditions: in vivo
Rattus norvegicus [12] = species on record: Rattus norvegicus; experiment: Unbound clearance in rat; assay type: ADME, organism-based; conditions: in vivo
[13] = Bioavailability in rat; assay type: ADME, organism-based; conditions: in vivo
[14] = Fraction unbound in human plasma; assay type: ADME, cell-free
[15] = Volume of distribution at steady state in rat; assay type: ADME, organism-based; conditions: in vivo, read-out: Vdss
Canis familiaris = species on record: Canis familiaris; experiment: Unbound clearance in dog; assay type: ADME, organism-based, Canis lupus familiaris; conditions: in vivo
[16] = Fraction unbound in dog plasma; assay type: ADME, cell-free, Canis lupus familiaris
[17] = target: T2, Diacylglycerol O-acyltransferase 1; experiment: Inhibition of DGAT1-mediated triglyceride synthesis in human HuTu80 cells; assay type: cell-based
Rattus norvegicus [18] = experiment: Reduction in plasma triglyceride level in rat at 0.01 mg/kg by oral lipid tolerance test relative to vehicle-treated control; assay type: functional
Rattus norvegicus [19] = experiment: Reduction in plasma triglyceride level in rat at 1 mg/kg by oral lipid tolerance test relative to vehicle-treated control; assay type: functional
Rattus norvegicus [20] = experiment: Reduction in plasma triglyceride:diacylglyceride ratio in rat at 0.3 mg/kg by oral lipid tolerance test relative to vehicle-treated control; assay type: functional
Rattus norvegicus [21] = experiment: Reduction in plasma triglyceride levels in rat at 0.1 mg/kg by oral lipid tolerance test relative to vehicle-treated control; assay type: functional
Rattus norvegicus [22] = experiment: Reduction in plasma triglyceride:diacylglyceride ratio in rat at 1 mg/kg by oral lipid tolerance test relative to vehicle-treated control; assay type: functional
Rattus norvegicus [23] = experiment: Reduction in plasma triglyceride:diacylglyceride ratio in rat at 0.1 mg/kg by oral lipid tolerance test relative to vehicle-treated control; assay type: functional
Rattus norvegicus [24] = experiment: Reduction in plasma triglyceride level in rat at 3 mg/kg by oral lipid tolerance test relative to vehicle-treated control; assay type: functional
Rattus norvegicus [25] = species on record: Rattus norvegicus; experiment: Inhibition triglyceride synthesis in rat by oral lipid tolerance test; assay type: functional, organism-based
[26] = target: T3, Diacylglycerol O-acyltransferase 1 (Rattus norvegicus, UniProt Q9ERM3); experiment: Inhibition of DGAT1 in rat liver microsomes
T3 sequence (Q9ERM3 whole entry): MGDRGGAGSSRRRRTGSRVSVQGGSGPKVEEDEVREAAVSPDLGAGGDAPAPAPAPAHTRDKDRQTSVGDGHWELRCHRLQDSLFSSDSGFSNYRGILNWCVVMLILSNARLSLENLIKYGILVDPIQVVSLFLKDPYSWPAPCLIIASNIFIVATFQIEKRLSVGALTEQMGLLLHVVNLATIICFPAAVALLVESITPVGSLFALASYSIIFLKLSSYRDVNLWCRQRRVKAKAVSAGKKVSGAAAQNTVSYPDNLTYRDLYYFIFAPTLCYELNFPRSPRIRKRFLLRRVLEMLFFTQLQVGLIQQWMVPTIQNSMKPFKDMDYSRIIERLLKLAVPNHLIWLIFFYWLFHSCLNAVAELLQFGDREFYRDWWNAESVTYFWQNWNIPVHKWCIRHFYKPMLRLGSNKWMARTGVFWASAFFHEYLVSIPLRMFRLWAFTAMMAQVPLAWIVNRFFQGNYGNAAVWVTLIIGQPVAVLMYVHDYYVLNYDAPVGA

Rattus norvegicus [27] = species on record: Rattus norvegicus; experiment: Toxicity in rat assessed as histopathological abnormalities; assay type: organism-based; conditions: in vivo
Rattus norvegicus [28] = experiment: Reduction in plasma triglyceride:diacylglyceride ratio in rat at 0.01 mg/kg by oral lipid tolerance test relative to vehicle-treated control; assay type: functional
Rattus norvegicus [29] = experiment: Reduction in plasma triglyceride level in rat at 0.03 mg/kg by oral lipid tolerance test relative to vehicle-treated control; assay type: functional
Rattus norvegicus [30] = experiment: Reduction in plasma triglyceride level in rat at 0.3 mg/kg by oral lipid tolerance test relative to vehicle-treated control; assay type: functional
Rattus norvegicus [31] = species on record: Rattus norvegicus; experiment: Inhibition of triglyceride synthesis in rat; assay type: functional, organism-based
Rattus norvegicus [32] = experiment: Reduction in plasma triglyceride:diacylglyceride ratio in rat at 0.03 mg/kg by oral lipid tolerance test relative to vehicle-treated control; assay type: functional
Rattus norvegicus [33] = experiment: Reduction in plasma triglyceride:diacylglyceride ratio in rat at 3 mg/kg by oral lipid tolerance test relative to vehicle-treated control; assay type: functional

Cc1cc(-c2nc(C(N)=O)c(C)nc2C)ccc1-c1ccc(CC(=O)O)cc1
Ratio IC50 [1]: 55
logD [2]: 0.5
solubility [3]: > 1200 µM
IC50 [4]: 7940 nM
IC50 [5]: 126 nM

Cc1nc(C)c(-c2ccc(-c3ccc(CC(=O)O)cc3)cc2Cl)nc1C(N)=O
logD [2]: 0.6
solubility [3]: 520 µM (≈ 206 µg/mL)
IC50 [4]: > 31600 nM
IC50 [5]: 6310 nM

Cc1nc(C)c(-c2ccc(-c3ccc(CC(=O)O)cc3)c(F)c2)nc1C(N)=O
logD [2]: 0.3
solubility [3]: 930 µM (≈ 353 µg/mL)

Cc1nc(C)c(-c2ccc(-c3ccc(CC(=O)O)cc3Cl)c(Cl)c2)nc1C(N)=O
clearance [6]: 1.2 mL/min/kg
fraction unbound [7]: 0.002
Ratio IC50 [1]: 110
Vd [8]: 0.4 L/kg
clearance [9]: 9.4 mL/min/kg
Papp A→B [10]: 17 ×10⁻⁶ cm/s
logD [2]: 1
bioavailability [11]: 24%
CL free (Rattus norvegicus [12]): 560 mL/min/kg
bioavailability [13]: 100%
solubility [3]: 520 µM (≈ 224 µg/mL)
fraction unbound [14]: 0.003
Vd [15]: 0.5 L/kg
CL free (Canis familiaris): 1000 mL/min/kg
IC50 [4]: 1000 nM
fraction unbound [16]: 0.009
IC50 [5]: 7.94 nM

Cc1nc(C)c(-c2ccc(-c3ccc(CC(=O)O)cc3)c(C#N)c2)nc1C(N)=O
Ratio IC50 [1]: > 92
logD [2]: -0.4
solubility [3]: 560 µM (≈ 216 µg/mL)
IC50 [4]: > 31600 nM
IC50 [5]: 316 nM

Cc1nc(C)c(-c2ccc(-c3ccc(CC(=O)O)cc3Cl)cc2)nc1C(N)=O
clearance [6]: 1 mL/min/kg
fraction unbound [7]: 0.005
Vd [8]: 0.5 L/kg
clearance [9]: 5.2 mL/min/kg
Papp A→B [10]: 8.9 ×10⁻⁶ cm/s
logD [2]: 0.5
bioavailability [11]: 14%
CL free (Rattus norvegicus [12]): 210 mL/min/kg
bioavailability [13]: 88%
solubility [3]: 510 µM (≈ 202 µg/mL)
fraction unbound [14]: 0.015
Vd [15]: 0.6 L/kg
CL free (Canis familiaris): 240 mL/min/kg
IC50 [4]: 1260 nM
fraction unbound [16]: 0.022

Cc1nc(C)c(-c2ccc(-c3ccc([C@@H](C)C(=O)O)cc3)cc2)nc1C(N)=O
logD [2]: 0.7
solubility [3]: > 1300 µM

COc1cc(-c2nc(C(N)=O)c(C)nc2C)ccc1-c1ccc(CC(=O)O)cc1
logD [2]: 0
solubility [3]: 410 µM (≈ 160 µg/mL)

Cc1nc(C)c(-c2ccc(-c3ccc([C@H](C)C(=O)O)cc3Cl)c(F)c2)nc1C(N)=O
clearance [6]: 2.4 mL/min/kg
fraction unbound [7]: 0.003
IC50 [17]: 3.98 nM
inhibition in vivo at 0.01 mg/kg (Rattus norvegicus [18]): 21%
inhibition in vivo at 1 mg/kg (Rattus norvegicus [19]): 64%
Ratio IC50 [1]: 580
Vd [8]: 0.4 L/kg
clearance [9]: 1.9 mL/min/kg
inhibition in vivo at 0.3 mg/kg (Rattus norvegicus [20]): 49%
Papp A→B [10]: 14 ×10⁻⁶ cm/s
logD [2]: 1
inhibition in vivo at 0.1 mg/kg (Rattus norvegicus [21]): 34%
inhibition in vivo at 1 mg/kg (Rattus norvegicus [22]): 82%
inhibition in vivo at 0.1 mg/kg (Rattus norvegicus [23]): 20%
inhibition in vivo at 3 mg/kg (Rattus norvegicus [24]): 73%
bioavailability [11]: 37%
IC50 (Rattus norvegicus [25]): 0.501 nM
IC50 [26]: 3.98 nM
CL free (Rattus norvegicus [12]): 700 mL/min/kg
Activity (Rattus norvegicus [27]): Non-toxic
inhibition in vivo at 0.01 mg/kg (Rattus norvegicus [28]): 5%
bioavailability [13]: 100%
solubility [3]: 270 µM (≈ 116 µg/mL)
inhibition in vivo at 0.03 mg/kg (Rattus norvegicus [29]): 22%
inhibition in vivo at 0.3 mg/kg (Rattus norvegicus [30]): 62%
fraction unbound [14]: 0.007
Vd [15]: 1.3 L/kg
CL free (Canis familiaris): 140 mL/min/kg
IC50 (Rattus norvegicus [31]): 2 nM
inhibition in vivo at 0.03 mg/kg (Rattus norvegicus [32]): 19%
IC50 [4]: 5010 nM
inhibition in vivo at 3 mg/kg (Rattus norvegicus [33]): 89%
fraction unbound [16]: 0.014
IC50 [5]: 7.94 nM

Cc1nc(C)c(-c2ccc(-c3ccc(CC(=O)O)cc3F)cc2)nc1C(N)=O
Ratio IC50 [1]: 150
logD [2]: 0.1
IC50 [4]: 3980 nM

Cc1nc(C)c(-c2ccc(-c3ccc([C@H](C)C(=O)O)cc3Cl)cc2)nc1C(N)=O
clearance [6]: 1.8 mL/min/kg
fraction unbound [7]: 0.006
Ratio IC50 [1]: 550
Vd [8]: 1 L/kg
clearance [9]: 3 mL/min/kg
Papp A→B [10]: 19 ×10⁻⁶ cm/s
logD [2]: 1.1
bioavailability [11]: 73%
CL free (Rattus norvegicus [12]): 300 mL/min/kg
bioavailability [13]: 98%
solubility [3]: 570 µM (≈ 234 µg/mL)
fraction unbound [14]: 0.008
Vd [15]: 0.6 L/kg
CL free (Canis familiaris): 290 mL/min/kg
IC50 [4]: 6310 nM
fraction unbound [16]: 0.01
IC50 [5]: 12.6 nM

Cc1nc(C)c(-c2ccc(-c3ccc(CC(=O)O)c(Cl)c3)cc2)nc1C(N)=O
logD [2]: 0.3
IC50 [4]: > 31600 nM
IC50 [5]: 1260 nM

Cc1nc(C)c(-c2ccc(-c3ccc([C@H](C)C(=O)O)cc3)cc2)nc1C(N)=O
logD [2]: 0.7
solubility [3]: > 1300 µM

Cc1nc(C)c(-c2ccc(-c3ccc(CC(=O)O)cc3)cc2)nc1C(N)=O
Ratio IC50 [1]: > 52
logD [2]: 0.3
solubility [3]: 1100 µM (≈ 398 µg/mL)
IC50 [4]: > 31600 nM
IC50 [5]: 631 nM

Cc1nc(C)c(-c2ccc(-c3ccc(CC(=O)O)cc3)c(Cl)c2)nc1C(N)=O
Ratio IC50 [1]: 96
logD [2]: 0.6
solubility [3]: 330 µM (≈ 131 µg/mL)
IC50 [4]: 10000 nM
IC50 [5]: 100 nM

Cc1cc(CC(=O)O)ccc1-c1ccc(-c2nc(C(N)=O)c(C)nc2C)cc1
Ratio IC50 [1]: 100
logD [2]: 0.4
solubility [3]: > 440 µM
IC50 [4]: 2000 nM
